A word on the inhibition: it is the percentage by which the read-out fell short of the control. As a reminder, the pIC50 is −log10 of the IC50, conventionally taken in molar units. One may read the bioavailability as dose-corrected exposure relative to a reference, in per cent. The CL/F is clearance divided by bioavailability, as obtained after extravascular dosing. As a reminder, the MRT inf is a mean duration of stay, worked out from the concentration-time curve. For orientation: clearance means the volume of plasma or blood freed of the substance per unit of time. Broadly, the AUC is concentration integrated over time. Read a low AUC as low exposure. A word on the IC50: it is the concentration that inhibits the measured activity by half. As usually defined, the Tmax is the time from dosing to the highest level.

Data set [1] deals with T1, Protein mono-ADP-ribosyltransferase TIPARP (Homo sapiens) (UniProt Q7Z3E1).
T1 sequence (whole entry): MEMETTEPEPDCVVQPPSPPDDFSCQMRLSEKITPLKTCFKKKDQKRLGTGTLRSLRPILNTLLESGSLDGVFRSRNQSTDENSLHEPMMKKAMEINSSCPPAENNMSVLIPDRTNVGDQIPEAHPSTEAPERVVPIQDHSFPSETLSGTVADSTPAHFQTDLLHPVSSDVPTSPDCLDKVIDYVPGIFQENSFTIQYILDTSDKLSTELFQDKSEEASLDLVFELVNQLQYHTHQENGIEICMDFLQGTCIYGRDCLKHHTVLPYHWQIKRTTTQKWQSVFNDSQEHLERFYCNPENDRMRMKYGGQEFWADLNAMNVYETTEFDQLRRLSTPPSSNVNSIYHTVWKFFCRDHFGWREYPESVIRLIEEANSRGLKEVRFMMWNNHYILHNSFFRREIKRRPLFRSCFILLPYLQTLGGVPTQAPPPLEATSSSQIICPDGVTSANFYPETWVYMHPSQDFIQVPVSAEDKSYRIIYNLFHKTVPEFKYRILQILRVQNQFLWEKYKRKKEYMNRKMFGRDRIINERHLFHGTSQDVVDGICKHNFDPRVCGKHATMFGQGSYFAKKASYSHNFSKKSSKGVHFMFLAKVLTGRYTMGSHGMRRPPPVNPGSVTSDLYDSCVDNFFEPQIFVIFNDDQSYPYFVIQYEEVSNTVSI
Briefly: Inhibition of human recombinant N-terminal FLAG tagged PARP7 (400 to 657 end residues) at 100 nM incubated for 1 hr by ELISA assay relative to control.

Data set [2] concerns the target Poly [ADP-ribose] polymerase 1 (Homo sapiens, UniProt P09874). Briefly: Inhibition of human recombinant N-terminal GST-tagged PARP1 (2 to 1014 end residues) incubated for 1 hr by ELISA assay. In general terms: ELISA stands for enzyme-linked immunosorbent assay.
Data set [3] deals with T2, Protein mono-ADP-ribosyltransferase TIPARP (Homo sapiens, UniProt Q7Z3E1).
T2 sequence (Q7Z3E1 whole entry): T1 sequence (whole entry)
Briefly: Inhibition of human recombinant N-terminal FLAG tagged PARP7 (400 to 657 end residues) incubated for 1 hr by ELISA assay.

Data set [4] in a line: Toxicity in BALB/c mouse implanted with mouse CT26 cells assessed as lung damage at 100 mg/kg, po measured for 14 days by hematoxylin and eosin staining based fluorescence microscopic analysis. Type of data set: organism-based. Conditions: in vivo, 336 h, time 14 day.
Data set [5] can be described thus: Toxicity in BALB/c mouse implanted with mouse CT26 cells assessed as kidney damage at 100 mg/kg, po measured for 14 days by hematoxylin and eosin staining based fluorescence microscopic analysis. Type of data set: organism-based. Conditions: in vivo, 336 h, time 14 day.
Data set [6] can be described thus: Apparent volume of distribution in ICR mouse at 10 mg/kg, po measured upto 24 hrs by LC-MS/MS analysis. Type of data set: ADME, organism-based. As to conditions: in vivo.
Data set [7] is described as follows: Oral bioavailability in ICR mouse at 10 mg/kg measured upto 24 hrs by LC-MS/MS analysis. As to conditions: in vivo. Type of data set: ADME, organism-based.
Data set [8] can be described thus: Clearance in ICR mouse at 10 mg/kg, po measured upto 24 hrs by LC-MS/MS analysis. The data set is classed as ADME, organism-based. Conditions: in vivo.
A short description of data set [9]: MRT(0 to infinity) in ICR mouse at 10 mg/kg, po measured upto 24 hrs by LC-MS/MS analysis. Type of data set: ADME, organism-based. Conditions: in vivo.
Data set [10] is described as follows: Initial plasma concentration in ICR mouse at 1 mg/kg, iv measured upto 24 hrs by LC-MS/MS analysis. The data set is classed as ADME, organism-based.
Data set [11] in a line: Clearance in ICR mouse at 1 mg/kg, iv measured upto 24 hrs by LC-MS/MS analysis. Type of data set: ADME, organism-based. As to conditions: in vivo.
Data set [12] can be described thus: AUC(0 to infinity) in ICR mouse at 1 mg/kg, iv measured upto 24 hrs by LC-MS/MS analysis. As to conditions: in vivo. Also noted: time < 24 hrs, dose 1 mg/kg, route iv. The data set is classed as ADME, organism-based.
The subject of data set [13] is CT26. Briefly: Antitumor activity against mouse CT26 cells implanted in BALB/c mouse assessed as increase in infiltration of CD3 positive CD4 positive T lymphocytes in tumors at 100 mg/kg, po measured after 14 days by flow cytometry (reference value: 7.95%). Type of data set: functional. As to conditions: time 14 day. (Flow cytometry measures light scatter and fluorescence of single cells or particles in a stream.)

A short description of data set [14]: Half life in ICR mouse at 10 mg/kg, po measured upto 24 hrs by LC-MS/MS analysis. The data set is classed as ADME, organism-based. As to conditions: in vivo.
The nature of data set [15]: Toxicity in BALB/c mouse implanted with mouse CT26 cells assessed as spleen damage at 100 mg/kg, po measured for 14 days by hematoxylin and eosin staining based fluorescence microscopic analysis. Conditions: in vivo, 336 h, time 14 day. Type of data set: organism-based.
In data set [16] the test system is CT26. Briefly: Antitumor activity against mouse CT26 cells xenografted in BALB/c mouse assessed as tumor growth inhibition at 100 mg/kg, po bid measured for 14 days. The data set is classed as functional. As to conditions: CT26, 336 h, time 14 day, read-out: TGI.
A short description of data set [17]: MRT(0 to infinity) in ICR mouse at 1 mg/kg, iv measured upto 24 hrs by LC-MS/MS analysis. Type of data set: ADME, organism-based. As to conditions: in vivo.
Data set [18] is described as follows: Toxicity in BALB/c mouse implanted with mouse CT26 cells assessed as liver damage at 100 mg/kg, po measured for 14 days by hematoxylin and eosin staining based fluorescence microscopic analysis. The data set is classed as organism-based. Conditions: in vivo, 336 h, time 14 day.
Data set [19] can be described thus: Cytotoxicity against mouse AML12 cells assessed as inhibition of cell growth measured after 6 days by MTT assay. Type of data set: toxicity, cell-based.
Data set [20] in a line: Apparent volume of distribution in ICR mouse at 1 mg/kg, iv measured upto 24 hrs by LC-MS/MS analysis. As to conditions: in vivo, read-out: Vz. The data set is classed as ADME, organism-based.
Data set [21] can be described thus: AUC(0 to infinity) in ICR mouse at 10 mg/kg, po measured upto 24 hrs by LC-MS/MS analysis. Type of data set: ADME, organism-based. Also noted: dose 10 mg/kg, time < 24 hrs, route po. Conditions: in vivo.
A short description of data set [22]: Half life in ICR mouse at 1 mg/kg, iv measured upto 24 hrs by LC-MS/MS analysis. The data set is classed as ADME, organism-based. As to conditions: in vivo.
Data set [23] in a line: Tmax in ICR mouse at 10 mg/kg, po measured upto 24 hrs by LC-MS/MS analysis. The data set is classed as ADME, organism-based. Conditions: in vivo.
Data set [24] can be described thus: Tmax in ICR mouse at 1 mg/kg, iv measured upto 24 hrs by LC-MS/MS analysis. As to conditions: in vivo. The data set is classed as ADME, organism-based.
Data set [25] has as its system CT26. Briefly: Antitumor activity against mouse CT26 cells implanted in BALB/c mouse assessed as increase in infiltration of CD4 positive CD8 positive T lymphocytes in tumors at 100 mg/kg, po measured after 14 days by flow cytometry (reference value: 6.67%). Type of data set: functional. As to conditions: time 14 day.

Each structure is given as a SMILES string. pIC50: −log10 of the molar value.

Sequence of Poly [ADP-ribose] polymerase 1 (P09874 whole entry): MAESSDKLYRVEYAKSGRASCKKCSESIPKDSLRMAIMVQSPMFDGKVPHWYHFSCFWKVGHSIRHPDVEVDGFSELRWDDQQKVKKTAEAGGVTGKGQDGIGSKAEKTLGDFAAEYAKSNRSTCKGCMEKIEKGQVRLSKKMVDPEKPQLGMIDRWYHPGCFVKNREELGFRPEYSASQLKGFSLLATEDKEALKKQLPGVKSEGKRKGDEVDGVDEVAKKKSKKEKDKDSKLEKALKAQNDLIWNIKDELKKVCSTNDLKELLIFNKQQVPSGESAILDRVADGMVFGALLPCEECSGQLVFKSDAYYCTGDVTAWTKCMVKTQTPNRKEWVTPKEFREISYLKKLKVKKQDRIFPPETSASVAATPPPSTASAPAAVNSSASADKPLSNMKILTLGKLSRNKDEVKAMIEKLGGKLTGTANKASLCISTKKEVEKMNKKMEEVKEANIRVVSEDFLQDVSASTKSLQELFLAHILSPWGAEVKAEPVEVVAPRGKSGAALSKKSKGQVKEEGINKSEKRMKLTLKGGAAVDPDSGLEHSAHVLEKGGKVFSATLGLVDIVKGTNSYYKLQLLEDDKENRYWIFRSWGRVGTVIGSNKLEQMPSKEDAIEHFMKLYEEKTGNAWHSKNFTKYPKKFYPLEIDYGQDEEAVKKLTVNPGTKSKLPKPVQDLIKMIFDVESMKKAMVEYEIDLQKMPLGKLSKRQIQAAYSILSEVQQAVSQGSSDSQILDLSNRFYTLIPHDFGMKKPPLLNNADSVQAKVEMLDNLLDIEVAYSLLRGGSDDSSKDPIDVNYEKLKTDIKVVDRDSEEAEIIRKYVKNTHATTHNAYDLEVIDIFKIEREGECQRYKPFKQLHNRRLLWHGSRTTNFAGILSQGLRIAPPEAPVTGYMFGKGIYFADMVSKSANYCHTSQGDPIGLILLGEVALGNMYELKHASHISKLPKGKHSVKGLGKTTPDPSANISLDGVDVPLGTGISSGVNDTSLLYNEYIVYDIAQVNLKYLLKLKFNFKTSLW

Take `C[C@@H](CN1CC(C(=O)N2CCN(c3ncccn3)CC2)C1)Nc1cn[nH]c(=O)c1C(F)(F)F`: the inhibition in [1] turned out to be 18%.
With `C[C@@H](CN1CCC(C(=O)N2CCN(c3ncc(C(F)(F)F)cn3)CC2)C1)Nc1cn[nH]c(=O)c1C(F)(F)F` (some centres undefined), the inhibition in data set [1] came out at 44.9%. The pIC50 in [2] is 5.95.
With `Cc1cnc(N2CCN(C(=O)C3CN(C[C@H](C)Nc4cn[nH]c(=O)c4C(F)(F)F)C3)CC2)nc1`, the pIC50 in data set [3] is 7.37. Further, the inhibition in data set [1] turned out to be 51.4%.
For the compound `C[C@@H](CN1CC(C(=O)N2CCN(c3ncc(S(C)(=O)=O)cn3)CC2)C1)Nc1cn[nH]c(=O)c1C(F)(F)F`, the pIC50 in [3] was 7.53. The inhibition in [1] came out at 95%.
With `C[C@@H](CN1CC(C(=O)N2CCN(c3ncc(F)cn3)CC2)C1)Nc1cn[nH]c(=O)c1C(F)(F)F`, the inhibition in data set [1] worked out at 26%.
As for `C[C@@H](CN1CC(C(=O)N2CCN(c3cccc4c3oc3ccccc34)CC2)C1)Nc1cn[nH]c(=O)c1C(F)(F)F`, the inhibition in [1] was 35%.
Same read-out and setting: the same measure for `COc1cnc(N2CCN(C(=O)C3CN(C[C@H](C)Nc4cn[nH]c(=O)c4C(F)(F)F)C3)CC2)nc1`: 56%.
Turning to `C[C@@H](CN1CCC(C(=O)N2CCN(c3ncc(C(F)(F)F)cn3)CC2)CC1)Nc1cn[nH]c(=O)c1C(F)(F)F`, in [1], the inhibition was 33.6%. In data set [2], the pIC50 was under 5.30.
As for `C[C@@H](CN1CC(C(=O)N2CCN(c3ccc4c(c3)OC(F)(F)O4)CC2)C1)Nc1cn[nH]c(=O)c1C(F)(F)F`, the pIC50 in data set [3] was 7.71. In addition, the inhibition in [1] worked out at 90%.
The like results for `C[C@@H](CN1CC(C(=O)N2CCN(c3ccc(C(F)(F)F)cn3)CC2)C1)Nc1cn[nH]c(=O)c1C(F)(F)F` were, in that order, 7.84 and 82%.
Consider `O=C(C1CN(CC2(Nc3cn[nH]c(=O)c3C(F)(F)F)CC2)C1)N1CCN(c2ncc(C(F)(F)F)cn2)CC1`, for which the inhibition in data set [1] came out at 39.6%.
`O=C(C1CN(CCNc2cn[nH]c(=O)c2C(F)(F)F)C1)N1CCN(c2ncc(C(F)(F)F)cn2)CC1`: the negative logarithm of the IC50 (pIC50) in data set [3] is 7.41. Besides, the inhibition in data set [1] is 66.8%.
Consider `C[C@@H](CN1CC(C(=O)N2CCN(c3nccc(C(F)(F)F)n3)CC2)C1)Nc1cn[nH]c(=O)c1C(F)(F)F`, for which the inhibition in data set [1] amounted to 65%.
Still for that read-out and setting: the same measure for `C[C@@H](CN1CC(C(=O)NC2CN(c3ncc(C(F)(F)F)cn3)C2)C1)Nc1cn[nH]c(=O)c1C(F)(F)F`: 51%.
For the compound `CC1CN(c2ncc(C(F)(F)F)cn2)CC(C)N1C(=O)C1CN(C[C@H](C)Nc2cn[nH]c(=O)c2C(F)(F)F)C1` (some centres undefined), the negative-log IC50 (pIC50) in data set [3] is 6.96. In addition, the inhibition in data set [1] was 77%.
Regarding `C[C@@H](CN1CC(C(=O)N2CCN(c3ccc(C(F)(F)F)cc3)CC2)C1)Nc1cn[nH]c(=O)c1C(F)(F)F`, the inhibition in data set [1] was determined as 32%.
Same read-out and setting: the same measure for `C[C@@H](CN1CC(C(=O)N2CCN(c3ncc(Cl)cn3)CC2)C1)Nc1cn[nH]c(=O)c1C(F)(F)F`: 75.5%.
On the same count and under the same terms, the same measure for `C[C@@H](CN1CC(C(=O)N2CCN(c3ncc(-c4ccc(C(F)(F)F)cc4)cn3)CC2)C1)Nc1cn[nH]c(=O)c1C(F)(F)F`: 40%.
Turning to `C[C@@H](COCCC(=O)N1CCN(c2ncc(C(F)(F)F)cn2)CC1)Nc1cn[nH]c(=O)c1C(F)(F)F` [ATAMPARIB], the Activity result in [4] is reported as “Non-Toxic”; in [5], “Non-Toxic”; in the data set with CT26 [13], 48.2%; in [15], “Non-Toxic”; in [18] it was “Non-Toxic”; in the data set with CT26 [25] it was 19.1%. In addition, the Vz in data set [6] amounted to 19.694 L/kg. For the same compound, in [7], the bioavailability was 25.7%. Further, the CL/F in data set [8] was 259 mL/min/kg. Further, the MRT inf is 54 min in data set [9] and 12 min in data set [17]. The same compound returned a C0 at 24 h in [10] of 1230 ng/mL. Besides, the clearance in data set [11] was 67 mL/min/kg. Moreover, the AUC is 256 ng·h/mL in data set [12] and 656 ng·h/mL in data set [21]. Besides, the t1/2 in data set [14] turned out to be 54 min; in data set [22], 9 min. Moreover, in the data set with CT26 [16], the inhibition in vivo at 100 mg/kg is 30%. The IC50 at 6 days in data set [19] was over 50000 nM. Besides, in [20], the Vd stood at 0.872 L/kg. Moreover, the Tmax was found to be 13.2 min in [23] and 4.8 min in data set [24].
In the case of `C[C@@H](CN1CC(C(=O)N2CCN(c3ncc(C#N)cn3)CC2)C1)Nc1cn[nH]c(=O)c1C(F)(F)F`, in [3], the pIC50 is 7.46. Further, in [1], the inhibition was found to be 71.5%.
As for `C[C@@H](CN1CC(C(=O)N2CCN(c3ncc(Br)cn3)CC2)C1)Nc1cn[nH]c(=O)c1C(F)(F)F`, in [3], the pIC50 was 7.95. The inhibition in [1] was 85.5%.
The like results for `C[C@@H](CN1CC(C(=O)N2C3CC2CN(c2ncc(C(F)(F)F)cn2)C3)C1)Nc1cn[nH]c(=O)c1C(F)(F)F` were, in that order, 6.94 and 55.5%.

For the origin of these results see ChEMBL document CHEMBL5316291 (J Med Chem, 2023).
